Patent US6117864A, “Methods employing stable preparation containing azelastine hydrochloride” (ASTA Medica Aktiengesellschaft, priority 1992, dated 2000)
Structures can show the parent of a compound that is named as a salt. Where two headings read alike, the source gives them in different places.

Legend:
[1] = Azelastine hydrate production-suppressing effect of each of the additives (azelastine hydrochloride solutions, pH 8); type: physicochemical; parameters: key to Effect Against Production of Azelastine Hydrates: absolutely no hydrate formation; .largecircle.: absolutely no hydrate formation; Δ: hydrate formation decreased compared to the produced water; X: no hydrate production-suppressing effect; settings: for Effect Against Production of Azelastine Hydrates: 0.3 g azelastine hydrochloride in 100 ml, pH 8
Procedure: The azelastine hydrate production-suppressing effect was tested for each of the additives in azelastine hydro-chloride solutions. Each of the additives were added to 0.3 g of azelastine hydrochloride, the pH was adjusted to 8 with sodium hydroxide, and purified water was added to a total volume of 100 ml to determine whether or not azelastine hydrate crystals were produced. The identification of azelastine hydrate was carried out by filtering off the precipitates produced in the test solutions, drying them at room temperature, measuring thermal analysis (TG-DTA) (FIG. 1) and IR spectrum (azelastine hydrochloride reference standard: FIG. 2; azelastine hydrate: FIG. 3), and then comparing them to the standard.
Cases in which there was absolutely no hydrate formation are represented by [o], cases in which hydrate formation decreased compared to the produced water are represented by [Δ], and cases in which there was no hydrate production-suppressing effect are represented by [X].

[2] = cited from earlier work
[3] = cited from earlier work; for percutaneous absorbability: technique of SHO 63-278108
[4] = cited from earlier work; remark: listed apart in the source
[5] = dependence on pH; cited from earlier work

In the case of CC(=O)O [Acetic Acid, reference compound], the “suppression of the production of azelastine hydrate (in words)” value (from here on “suppression”) [1] is reported as “not exhibited” and the “Effect Against Production of Azelastine Hydrates” value (from here on “Effect Against Production”) ([1]; amount added 0.5%) is reported as “X”.

In the case of CCCCCCCCCCCCCCCCCCCCCC(=O)O [Behenic Acid], the “Effect Against Production” value ([1]; amount added 0.5%) is reported as “.largecircle”.

With CCCC(=O)O [Butyric Acid, reference compound] the “suppression” value [1] was “not exhibited” and the “Effect Against Production” value ([1]; amount added 0.5%) was “X”.

With CCCCCCCCCC(=O)O [Capric Acid] the “Effect Against Production” value ([1]; amount added 0.5%) was “.largecircle”.

With CCCCCC(=O)O [Caproic Acid, reference compound] the “Effect Against Production” value ([1]; amount added 0.5%) was “X”.

With CCCCCCCC(=O)O [Caprylic Acid] the “Effect Against Production” value ([1]; amount added 0.5%) was “Δ”.

For CCCCCCCC/C=C\CCCCCCCCCCCC(=O)O [Erucid Acid], the “Effect Against Production” value ([1]; amount added 0.5%) was “.largecircle”.

For CCO [Ethanol, reference compound], the “Effect Against Production” value ([1]; amount added 30%) was “X”.

For CC(C)CCCCCCCCCCCCCCC(=O)O [Isostearic Acid], the “Effect Against Production” value ([1]; amount added 0.5%) was “.largecircle”.

In the case of CCCCCCCCCCCC(=O)O [Lauric Acid], the “Effect Against Production” value ([1]; amount added 0.5%) is reported as “.largecircle”.

For CC/C=C\C/C=C\C/C=C\CCCCCCCC(=O)O [Linolenic Acid], the “Effect Against Production” value ([1]; amount added 0.5%) was “.largecircle”.

For CCCCC/C=C\C/C=C\CCCCCCCC(=O)O [Linolic Acid], the “Effect Against Production” value ([1]; amount added 0.5%) was “.largecircle”.

For CCCCCCCCCCCCCC(=O)O [Myristic Acid], the “Effect Against Production” value ([1]; amount added 0.1%) was “Δ”, the “Effect Against Production” value ([1]; amount added 0.3%) was “.largecircle” and the “Effect Against Production” value ([1]; amount added 0.5%) was “.largecircle”.

For CCCCCCCC/C=C\CCCCCCCC(=O)O [Oleic Acid], the “Effect Against Production” value ([1]; amount added 0.1%) was “Δ”, the “Effect Against Production” value ([1]; amount added 0.3%) was “.largecircle” and the “Effect Against Production” value ([1]; amount added 1% (1 or 1.0)) was “.largecircle”.

With CCCCCCCCCCCCCCCC(=O)O [Palmitic Acid] the “Effect Against Production” value ([1]; amount added 0.5%) was “.largecircle”.

In the case of CCCCCC/C=C\CCCCCCCC(=O)O [Palmitoleic Acid], the “Effect Against Production” value ([1]; amount added 0.5%) is reported as “.largecircle”.

For CCC(=O)O [Propionic Acid, reference compound], the “suppression” value [1] was “not exhibited” and the “Effect Against Production” value ([1]; amount added 0.3%) was “X”.

With CC(O)CO (stereo not drawn) [Propylene glycol, reference compound] the “Effect Against Production” value ([1]; amount added 30%) was “X”.

In the case of CCCCCCCCCCCCCCCCCC(=O)O [Stearic Acid], the “Effect Against Production” value ([1]; amount added 0.5%) is reported as “.largecircle”.

In the case of CN1CCCC(n2nc(Cc3ccc(Cl)cc3)c3ccccc3c2=O)CC1 (stereo not drawn) [azelastine hydrate], the solubility ([2]; in aqueous preparation, crystalline hydrates of non-dissociation type molecules) is listed as “poor solubility”.

In the case of CN1CCCC(n2nc(Cc3ccc(Cl)cc3)c3ccccc3c2=O)CC1 (stereo not drawn) [azelastine hydrochloride], the increase in absorbability ([3]; technique of SHO 61-254532) is given as “no increase in absorbability was observed”, the percutaneous absorbability ([3]; amount of azelastine hydrochloride high compared to the base) is given as “marked improvement” and the percutaneous absorbability ([3]; amount of azelastine hydrochloride low compared to the base) is given as “poor percutaneous absorbability”. For the same molecule, the solubility in solvents ([2]; solvents which may be used in pharmaceutical compositions) was “low solubility”.

For CN1CCCC(n2nc(Cc3ccc(Cl)cc3)c3ccccc3c2=O)CC1 (stereo not drawn) [azelastine], the “acid dissociation constant (pKa)” value [4] is listed as “approximately 9.5”.

In the case of CN1[C@@H]2C[C@@H](OC(=O)[C@H](CO)c3ccccc3)C[C@H]1[C@@H]1O[C@@H]12 [scopolamine], the percutaneous penetration speed [5] is given as “in direct proportion to the pH”.
